Test results published in patent US20240270762A1, “PENICILLIN-BINDING PROTEIN INHIBITORS” (priority 2021, published 2024).
Converted amounts (≈) assume the structure as drawn. Read-outs that look alike come from different tables or passages of the source.

Assays:
[1] = system: B. humptydooensis ATCC BAA-2767; test: microbe, parasite or virus in culture; format: cell-based; settings: Burkholderia humptydooensis, ATCCBAA2767, read-out: Minimum inhibitory concentration (MIC), B. humptydooensis ATCC BAA-2767
A. baumannii 1258916 = test: microbe, parasite or virus in culture; format: cell-based, Acinetobacter baumannii; settings: Acinetobacter baumannii, 1258916, read-out: MIC, A. baumannii 1258916
P. aeruginosa ATCC 27853 = test: microbe, parasite or virus in culture; format: cell-based; settings: Pseudomonas aeruginosa, ATCC27853, read-out: Minimum inhibitory concentration, P. aeruginosa ATCC 27853
A. baumannii CDC-0036 = test: microbe, parasite or virus in culture; format: cell-based; settings: Acinetobacter baumannii, CDC0036, read-out: MIC, A. baumannii CDC-0036
P. aeruginosa CDC-0110 = test: microbe, parasite or virus in culture; format: cell-based; settings: Pseudomonas aeruginosa, CDC0110, read-out: Minimum inhibitory concentration, P. aeruginosa CDC-0110
[2] = system: B. thailandensis ATCC 700388; test: microbe, parasite or virus in culture; format: cell-based; settings: Burkholderia thailandensis, ATCC700388, read-out: Minimum inhibitory concentration (MIC), B. thailandensis ATCC 700388
N. gonorrhoeae WHO X = test: Liquid broth MIC in Fastidious broth; settings: Neisseria gonorrhoeae
A. baumannii CDC-0045 = test: microbe, parasite or virus in culture; format: cell-based; settings: Acinetobacter baumannii, CDC0045, read-out: MIC, A. baumannii CDC-0045
P. aeruginosa ATCC 35151 = test: microbe, parasite or virus in culture; format: cell-based; settings: Pseudomonas aeruginosa, ATCC35151, read-out: Minimum inhibitory concentration, P. aeruginosa ATCC 35151
N. gonorrhoeae WHO Q = test: Liquid broth MIC in Fastidious broth; settings: Neisseria gonorrhoeae
P. aeruginosa CDC-0090 = test: microbe, parasite or virus in culture; format: cell-based; settings: Pseudomonas aeruginosa, CDC0090, read-out: Minimum inhibitory concentration, P. aeruginosa CDC-0090
A. baumannii ATCC 19606 = test: microbe, parasite or virus in culture; format: cell-based; settings: Acinetobacter baumannii, ATCC19606, read-out: MIC, A. baumannii ATCC 19606
A. baumannii ATCC 17978 = test: microbe, parasite or virus in culture; format: cell-based; settings: Acinetobacter baumannii, ATCC17978, read-out: MIC, A. baumannii ATCC 17978
N. gonorrhoeae CDC-0197 = test: Liquid broth MIC in Fastidious broth; settings: Neisseria gonorrhoeae
[3] = system: P. aeruginosa (ΔmexAB-oprM); test: Broth microdilution MIC in iron-depleted CAMHB (IDM); format: cell-based; settings: Pseudomonas aeruginosa; iron-depleted CAMHB (IDM); […]; read-out: Minimum inhibitory concentration, P. aeruginosa ΔmexAB-oprM
[4] = read-out: Minimum Inhibitory Concentration (MIC), N. gonorrhoeae WHO X
[5] = read-out: Minimum Inhibitory Concentration (MIC), N. gonorrhoeae WHO Q
[6] = CDC0197, read-out: Minimum Inhibitory Concentration (MIC), N. gonorrhoeae CDC-0197

Compound | MIC [1] | MIC (A. baumannii 1258916) | MIC (P. aeruginosa ATCC 27853) | MIC (A. baumannii CDC-0036) | MIC (P. aeruginosa CDC-0110) | MIC [2] | MIC (N. gonorrhoeae WHO X; [4]) | MIC (A. baumannii CDC-0045) | MIC (P. aeruginosa ATCC 35151) | MIC (N. gonorrhoeae WHO Q; [5]) | MIC (P. aeruginosa CDC-0090) | MIC (A. baumannii ATCC 19606) | MIC (A. baumannii ATCC 17978) | MIC (N. gonorrhoeae CDC-0197; [6]) | MIC [3] | MIC (N. gonorrhoeae WHO X; read-out: Minimum Inhibitory Concentration, WHO X) | MIC (N. gonorrhoeae WHO Q; read-out: Minimum Inhibitory Concentration, WHO Q) | MIC (N. gonorrhoeae CDC-0197; CDC0197, read-out: Minimum Inhibitory Concentration, CDC-0197)
CN(CCN1CCN(C(=O)N[C@@H](C(=O)N[C@H]2Cc3ccc(F)c(C(=O)O)c3OB2O)c2cc(F)c(O)c(O)c2Cl)C(=O)C1=O)Cc1nccs1 [Example 200, (R)-3-((R)-2-(2-chloro-5-fluoro-3,4-dihydroxyphenyl)-2-(4-(2-(methyl(thiazol-2-ylmethyl)amino)ethyl)-2,3-dioxopiperazine-1-carboxamido)acetamido)-7-fluoro-2-hydroxy-3,4-dihydro-2H-benzo[e][1,2]oxaborinine-8-carboxylic acid] | < 1 mg/L | < 1 mg/L | < 1 mg/L | 2 to 4 mg/L (≈ 2.71 to 5.43 µM) | < 1 mg/L | < 1 mg/L | > 64 mg/L | < 1 mg/L | < 1 mg/L | 16 to 32 mg/L (≈ 21.7 to 43.4 µM) | < 1 mg/L | < 1 mg/L | < 1 mg/L | > 64 mg/L | < 1 mg/L | – | – | –
O=C(NCCN1CCN(C(=O)NC(C(=O)N[C@H]2Cc3ccc(F)c(C(=O)O)c3OB2O)c2cc(F)c(O)c(O)c2Cl)C1=O)c1ccc(O)cc1 (stereo partly drawn) [Example 243, (3R)-3-(2-(2-chloro-5-fluoro-3,4-dihydroxyphenyl)-2-(3-(2-(4-hydroxybenzamido)ethyl)-2-oxoimidazolidine-1-carboxamido)acetamido)-7-fluoro-2-hydroxy-3,4-dihydro-2H-benzo[e][1,2]oxaborinine-8-carboxylic acid] | 2 to 4 mg/L (≈ 2.79 to 5.57 µM) | < 1 mg/L | < 1 mg/L | < 1 mg/L | < 1 mg/L | 2 to 4 mg/L (≈ 2.79 to 5.57 µM) | > 64 mg/L | < 1 mg/L | < 1 mg/L | > 64 mg/L | < 1 mg/L | < 1 mg/L | < 1 mg/L | 16 to 32 mg/L (≈ 22.3 to 44.6 µM) | < 1 mg/L | – | – | –
CN(CCN1CCN(C(=O)N[C@@H](C(=O)N[C@H]2Cc3ccc(F)c(C(=O)O)c3OB2O)c2cc(F)c(O)c(O)c2Cl)C(=O)C1=O)Cc1cccc(C(N)=O)c1 [Example 225, (R)-3-((R)-2-(4-(2-((3-carbamoylbenzyl)(methyl)amino)ethyl)-2,3-dioxopiperazine-1-carboxamido)-2-(2-chloro-5-fluoro-3,4-dihydroxyphenyl)acetamido)-7-fluoro-2-hydroxy-3,4-dihydro-2H-benzo[e][1,2]oxaborinine-8-carboxylic acid] | < 1 mg/L | < 1 mg/L | 2 to 4 mg/L (≈ 2.59 to 5.18 µM) | 2 to 4 mg/L (≈ 2.59 to 5.18 µM) | < 1 mg/L | < 1 mg/L | > 64 mg/L | < 1 mg/L | < 1 mg/L | > 64 mg/L | < 1 mg/L | < 1 mg/L | < 1 mg/L | 16 to 32 mg/L (≈ 20.7 to 41.4 µM) | < 1 mg/L | – | – | –
O=C(NCCCN1CCN(C(=O)NC(C(=O)N[C@H]2Cc3ccc(F)c(C(=O)O)c3OB2O)c2cc(F)c(O)c(O)c2Cl)C1=O)c1nccs1 (stereo partly drawn) [Example 257, (3R)-3-(2-(2-chloro-5-fluoro-3,4-dihydroxyphenyl)-2-(2-oxo-3-(3-(thiazole-2-carboxamido)propyl)imidazolidine-1-carboxamido)acetamido)-7-fluoro-2-hydroxy-3,4-dihydro-2H-benzo[e][1,2]oxaborinine-8-carboxylic acid] | 2 to 4 mg/L (≈ 2.77 to 5.53 µM) | < 1 mg/L | 2 to 4 mg/L (≈ 2.77 to 5.53 µM) | 2 to 4 mg/L (≈ 2.77 to 5.53 µM) | 2 to 4 mg/L (≈ 2.77 to 5.53 µM) | < 1 mg/L | – | < 1 mg/L | < 1 mg/L | – | 2 to 4 mg/L (≈ 2.77 to 5.53 µM) | < 1 mg/L | < 1 mg/L | – | < 1 mg/L | > 64 mg/L | > 64 mg/L | > 64 mg/L
O=C(O)c1c(F)ccc2c1OB(O)[C@@H](NC(=O)C(NC(=O)N1CCN(CCCNC(=O)[C@@H]3CCCN3)C(=O)C1=O)c1cc(F)c(O)c(O)c1Cl)C2 (stereo partly drawn) [Example 212, (3R)-3-(2-(2-chloro-5-fluoro-3,4-dihydroxyphenyl)-2-(2,3-dioxo-4-(3-((S)-pyrrolidine-2-carboxamido)propyl)piperazine-1-carboxamido)acetamido)-7-fluoro-2-hydroxy-3,4-dihydro-2H-benzo[e][1,2]oxaborinine-8-carboxylic acid] | < 1 mg/L | 2 to 4 mg/L (≈ 2.71 to 5.43 µM) | 2 to 4 mg/L (≈ 2.71 to 5.43 µM) | 8 to 16 mg/L (≈ 10.9 to 21.7 µM) | < 1 mg/L | 2 to 4 mg/L (≈ 2.71 to 5.43 µM) | > 64 mg/L | 2 to 4 mg/L (≈ 2.71 to 5.43 µM) | < 1 mg/L | > 64 mg/L | < 1 mg/L | < 1 mg/L | < 1 mg/L | 16 to 32 mg/L (≈ 21.7 to 43.4 µM) | < 1 mg/L | – | – | –
CN(CCN1CCN(C(=O)N[C@@H](C(=O)N[C@H]2Cc3ccc(F)c(C(=O)O)c3OB2O)c2cc(F)c(O)c(O)c2Cl)C(=O)C1=O)Cc1cncc(O)c1 [Example 208, (R)-3-((R)-2-(2-chloro-5-fluoro-3,4-dihydroxyphenyl)-2-(4-(2-(((5-hydroxypyridin-3-yl)methyl)(methyl)amino)ethyl)-2,3-dioxopiperazine-1-carboxamido)acetamido)-7-fluoro-2-hydroxy-3,4-dihydro-2H-benzo[e][1,2]oxaborinine-8-carboxylic acid] | < 1 mg/L | < 1 mg/L | < 1 mg/L | 2 to 4 mg/L (≈ 2.68 to 5.36 µM) | < 1 mg/L | < 1 mg/L | > 64 mg/L | < 1 mg/L | < 1 mg/L | 16 to 32 mg/L (≈ 21.4 to 42.8 µM) | < 1 mg/L | < 1 mg/L | < 1 mg/L | 16 to 32 mg/L (≈ 21.4 to 42.8 µM) | < 1 mg/L | – | – | –
O=C(NCCCN1CCN(C(=O)NC(C(=O)N[C@H]2Cc3ccc(F)c(C(=O)O)c3OB2O)c2cc(F)c(O)c(O)c2Cl)C(=O)C1=O)c1cccc(O)c1 (stereo partly drawn) [Example 204, (3R)-3-(2-(2-chloro-5-fluoro-3,4-dihydroxyphenyl)-2-(4-(3-(3-hydroxybenzamido)propyl)-2,3-dioxopiperazine-1-carboxamido)acetamido)-7-fluoro-2-hydroxy-3,4-dihydro-2H-benzo[e][1,2]oxaborinine-8-carboxylic acid] | < 1 mg/L | < 1 mg/L | < 1 mg/L | 2 to 4 mg/L (≈ 2.63 to 5.26 µM) | < 1 mg/L | 2 to 4 mg/L (≈ 2.63 to 5.26 µM) | > 64 mg/L | < 1 mg/L | < 1 mg/L | > 64 mg/L | < 1 mg/L | < 1 mg/L | < 1 mg/L | 16 to 32 mg/L (≈ 21.1 to 42.1 µM) | < 1 mg/L | – | – | –
O=C(CN1CCN(C(=O)NC(C(=O)N[C@H]2Cc3ccc(F)c(C(=O)O)c3OB2O)c2cc(F)c(O)c(O)c2Cl)C(=O)C1=O)Nc1ccc(O)cc1 (stereo partly drawn) [Example 230, (3R)-3-(2-(2-chloro-5-fluoro-3,4-dihydroxyphenyl)-2-(4-(2-((4-hydroxyphenyl)amino)-2-oxoethyl)-2,3-dioxopiperazine-1-carboxamido)acetamido)-7-fluoro-2-hydroxy-3,4-dihydro-2H-benzo[e][1,2]oxaborinine-8-carboxylic acid] | 2 to 4 mg/L (≈ 2.73 to 5.47 µM) | 2 to 4 mg/L (≈ 2.73 to 5.47 µM) | < 1 mg/L | 2 to 4 mg/L (≈ 2.73 to 5.47 µM) | < 1 mg/L | 2 to 4 mg/L (≈ 2.73 to 5.47 µM) | > 64 mg/L | < 1 mg/L | < 1 mg/L | 16 to 32 mg/L (≈ 21.9 to 43.7 µM) | 2 to 4 mg/L (≈ 2.73 to 5.47 µM) | < 1 mg/L | < 1 mg/L | 16 to 32 mg/L (≈ 21.9 to 43.7 µM) | < 1 mg/L | – | – | –
CN(CCN1CCN(C(=O)N[C@@H](C(=O)N[C@H]2Cc3ccc(F)c(C(=O)O)c3OB2O)c2cc(F)c(O)c(O)c2Cl)C(=O)C1=O)Cc1cccnc1 [Example 201, (R)-3-((R)-2-(2-chloro-5-fluoro-3,4-dihydroxyphenyl)-2-(4-(2-(methyl(pyridin-3-ylmethyl)amino)ethyl)-2,3-dioxopiperazine-1-carboxamido)acetamido)-7-fluoro-2-hydroxy-3,4-dihydro-2H-benzo[e][1,2]oxaborinine-8-carboxylic acid] | < 1 mg/L | < 1 mg/L | < 1 mg/L | 2 to 4 mg/L (≈ 2.74 to 5.47 µM) | < 1 mg/L | < 1 mg/L | > 64 mg/L | < 1 mg/L | < 1 mg/L | 16 to 32 mg/L (≈ 21.9 to 43.8 µM) | < 1 mg/L | < 1 mg/L | < 1 mg/L | > 64 mg/L | < 1 mg/L | – | – | –
